# Measured values reported in patent publication US7855211B2, “Protein kinase inhibitors” (Eli Lilly and Company, priority 2008, dated 2010).
# pIC50: −log10 of the molar value. Where two headings read alike, the source gives them in different places.
# Tests used:
# CDK6 = biological target: T1, CDK6 (Homo sapiens, UniProt Q00534); assay: CDK6 Inhibition Assay; format: biochemical; conditions: CDK6 kinase, 33P-ATP, CTRF substrate
# T1 construct: purchased Proqinase 7533
# Description: 10 μL of test compound in 20% DMSO, 20 μL of ATP and CTRF (Upstate cat # 12-439) solution, and 10 μL of enzyme solution are mixed in a 96 well plate. The ATP and CRTF solution is prepared to give a final concentration of 100 μM ATP, 0.5 μCi [^33P]-ATP and 0.8 μM CTRF diluted in kinase buffer of 68 mM HEPES pH 7.4, 6.72 mM MgCl2, 2.64 mM DTT, and 0.004% TRITON™ X-100. The enzyme solution is prepared for a final concentration of 1.7 ng/μL CDK6 enzyme (Proqinase cat # 7533) diluted in the kinase buffer described above in the CDK4 inhibition assay. Test compounds are serially diluted 1:3 in 20% DMSO to create a 10 point curve at a starting concentration of 20 μM. 20% DMSO buffer alone without added test compound is employed as a control, 500 mM EDTA is used to determine the level of background ^33P in the absence of enzyme activity. Reagents are mixed and incubated for 90 min at 20° C. The reaction is terminated by the addition of 80 μL 10% (v/v) H3PO4 and precipitation of material onto glass fiber filter plates (Millipore, MAFC N0B 50). The wells are washed four times with 0.5% H3PO4 and the radioactivity incorporated is determined with a microplate scintillation counter (Microbeta Trilux, Wallac).
# The data is analyzed in the same manner as for CDK4. Preferred exemplified compounds display an IC50 of <30 nM in the above assay. […]
# [1] = test system: U87 MG subcutaneous xenografts; assay: U87 MG subcutaneous xenograft, combination study with temozolomide; format: in vivo, human; conditions: 3 mpk, IP, q7dx2
# Description: (§1) Test compound is prepared in an appropriate vehicle (1% hydroxyethyl cellulose, in 25 mM phosphate buffer pH 2) and is administered by oral gavage daily (at 25, 50 or 100 mg/kg (mpk)) for 21 days when tumours are established (11-29 days after implant). Tumour response is determined by tumour volume measurement performed twice a week during the course of treatment.
# (§2) The statistical method for assessing Tumour Growth Delay (TGD-Individual interpolation method) is as follows: For each animal, the time to reach a specified tumour volume (threshold) is calculated by interpolating between the last measurement before reaching the threshold and the next measurement. The interpolation is linear using log10(volume) vs. time. If an animal never reaches the threshold, its crossing time is reported at “>T” where T is the last day measured for that animal. These crossing times are analyzed as “time-to-event” data with right-censoring using a Weibull distribution. A mean and standard deviation are determined for each treatment group. Tumour growth delay (TGD) is the difference in mean crossing time between a treated group and the vehicle control group. T-tests are performed using the means and standard deviations from the Weibull analysis. Body weight is taken as a general measurement of toxicity.
# U87 MG subcutaneous xenografts are grown and measured as previously described. The compound of Example 16 is formulated and administered as previously described and dosed orally once a day from days 11-31. Temozolomide (Schering Corporation) is formulated in 1% w/v hydroxyethylcellulose/0.25% v/v polysorbate 80 in purified water and administered by interperitoneal injection on days 11 and 18. A comparison of the single agent activity of temozolomide with a combination treatment with the compound of Example 16 is shown in Table 7. Tumor growth is analyzed by 2-way interaction analysis; log-transformed tumor volumes were analyzed with a repeated measures analysis of variance (ANOVA) using a spatial power correlation model in SAS, version 9.1 (Cary, N.C.). […]
# [2] = test system: U87 MG orthotopic brain xenografts; assay: U87 MG orthotopic brain xenograft, combination study with temozolomide; conditions: TMZ IP 3 mg/kg (days 6 and 13)
# Description: In vivo brain tumour model: Male NIH-RNU rats weighing between 225 and 300 g are anesthetized with isoflurane and placed into a stereotaxic frame (David Kopf Instruments, Tujunga, Calif.). A mid-line incision is made and a 1 mm burr hole drilled 2 mm lateral from the midline and 3 mm anterior to the coronal suture. A cell suspension of 5×10^5 U87 MG human glioblastoma tumour cells (grown in Eagle's MEM with Earle Salts, L-glutamine and non essential amino acids, 1 mM Na pyruvate and 10% FBS) in 10 μL (5×10^5 cells for qd dosing and 1×10^6 for q2d dosing) is injected at a depth of 3 mm by means of a 25 or 50 μl Hamilton syringe over a period of approximately 2 min using a stereotaxic-mounted syringe pump (Nano-Injector, model #53310 and Stereotaxic Adapter Clamp, part #51681, Stoelting Co, Wood Dale, Ill.) with the syringe left in place for an additional 1 min to prevent backflow and the syringe is slowly withdrawn. […]
# The primary outcome variable is survival. Animals are monitored daily until death and, in consultation with the veterinary staff and in adherence with the policy on tumour implantation, euthanized if the animal becomes moribund. […] Survival data are analyzed by the Kaplan-Meier method for median survival analysis using JMP ν6.0.2 (SAS Institute).
# Solubility Assay = format: physicochemical; conditions: aqueous buffer, thermodynamic from solid; pH 8 phosphate buffer, ambient temperature, at least 16 hours, target 2.0 mg/mL
# Description: The appropriate amounts of test compound are weighed into separate chromatographic vials. […] The vials are capped securely and placed in a rotation device. The vials are rotated through 360° for at least 16 hours at ambient temperature with an angular speed of about 50 rpm. A visual examination of the individual vials is performed after rotation. 250 μL from each vial is filtered through a 0.7 μm glass filter. The sample filtrate and standard filtrate are collected into separate wells of 96 deep well plates. […] The sample and standard solutions are analysed by HPLC (LC Column: […] A—0.2% Formic Acid in Water; B—0.2% Formic Acid in acetonitrile; […] Diode array detector scan from 200 nm to 400 nm. The wavelength extracted and used for quantitation is selected to provide the most accurate estimation of the sample preparations.) Retention time used for peak assignment for the test compound is obtained from the 200 μg/mL standard preparation chromatogram. Solubility values are calculated using a four-level calibration curve. The line of best fit for peak area of calibration standards calculated by chromatographic management data system using linear or quadratic through zero fit is used. Solubility results are reported in mg/mL. Preferred exemplified compounds display a solubility of at least 2 mg/ml in pH 8 phosphate buffer using the above assay.
# [3] = test system: Human colorectal cancer cells (colo-205); assay: Human subcutaneous xenograft model, colo-205, athymic nude mice; format: in vivo; conditions: oral gavage daily for 21 days
# Description: as §1, §2
# [4] = test system: human acute myeloid leukaemia (AML) cells (MV4-11); assay: Human subcutaneous xenograft model, MV4-11, athymic nude mice; format: in vivo; conditions: for TGD Days (750 m3): oral gavage daily for 21 days
# Description: as §1, §2
# [5] = test system: human glioblastoma cells (U87MG); assay: Human subcutaneous xenograft model, U87MG, athymic nude mice; format: in vivo; conditions: U87 MG, oral gavage daily for 21 days
# Description: as §1, §2
# [6] = test system: human lung cancer cells (NCI H460); assay: Human subcutaneous xenograft model, NCI H460, athymic nude mice; format: in vivo; conditions: oral gavage daily for 21 days
# Description: as §1, §2
# [7] = test system: U87 MG human glioblastoma tumour cells; assay: Orthotopic Brain Xenograft Model, NIH-RNU rats, survival; format: in vivo
# Source text: Test compound is formulated in vehicle (1% w/v hydroxyethylcellulose/0.25% v/v polysorbate 80/0.05% v/v antifoam in purified water) and administered every day for 21 days at 20, 40 and 80 mpk (qdx21) and 80 mpk q2dx10 starting on day 4 after tumour implant.
# The primary outcome variable is survival.
# [8] = Plasma and brain exposure in non-tumour bearing male Sprague Dawley rats; format: in vivo, rat; conditions: male SD rats; for concentration at 2 h / concentration at 4 h / concentration at 24 h / concentration at 48 h: single oral dose 30 mg/kg
# Description: Samples are taken over 48 h in order to determine plasma and brain concentrations. Animals are sacrificed, and whole blood collected by cardiac puncture and plasma isolated by centrifugation. Whole brain is collected and snapped frozen in liquid nitrogen. […] An internal standard compound in acetonitrile/methanol (1:1, v/v) is added to samples of plasma or brain homogenate to precipitate protein and the samples are centrifuged prior to analysis. The supernatants are analysed by injection and rapid gradient elution on a Javelin Betasil C18 column (20×2.1 mm cartridge, Mobile phase A: […] The eluted analytes are detected by LC-MS-MS analysis using a Sciex API 4000 triple quadrupole mass spectrometer. Concentrations of compounds in plasma or brain are determined from standards prepared under identical conditions. The plasma and brain concentrations are determined in this study from a group of three rats at each time point (see Tables 6a and 6b) and are used to calculate the area under the plasma concentration/time curve or the brain concentration/time curve from 0 to 48 hours. […] Maximal concentrations (Tmax) are detected at 4 h.
# [9] = test system: Calu-6 (lung) subcutaneous xenografts; assay: Calu-6 (lung) subcutaneous xenograft, combination study with gemcitabine; format: in vivo, human; conditions: 60 mpk, IP, q3dx7
# Description: as §1, §2
# Calu-6 (lung) subcutaneous xenografts are grown and measured as previously described. Gemcitabine was formulated in saline (0.9% sodium chloride in purified water) and administered via intraperitoneal injection q3dx7. Test compound was administered qdx21. A comparison of the single agent activity of gemcitabine with combination treatments containing both gemcitabine and the compound of Example 16 are shown in Table 10. Tumour growth is analyzed by 2-way interaction analysis.
# [10] = Sprague Dawley, rat, brain, read-out: Brain concentration (Mean)
# [11] = Sprague Dawley, rat, plasma, read-out: Plasma concentration (Mean)
# T1 sequence (Q00534 whole entry): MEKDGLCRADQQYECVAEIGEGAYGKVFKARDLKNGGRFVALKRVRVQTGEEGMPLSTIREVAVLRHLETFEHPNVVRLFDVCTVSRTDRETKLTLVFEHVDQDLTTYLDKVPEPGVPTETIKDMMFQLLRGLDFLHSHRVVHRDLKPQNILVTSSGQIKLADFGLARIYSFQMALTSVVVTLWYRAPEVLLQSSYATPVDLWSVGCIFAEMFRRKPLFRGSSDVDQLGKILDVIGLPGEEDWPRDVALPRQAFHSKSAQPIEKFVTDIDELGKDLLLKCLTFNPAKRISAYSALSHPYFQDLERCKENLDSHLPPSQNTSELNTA
# T1 sequence (P24385 whole entry partner): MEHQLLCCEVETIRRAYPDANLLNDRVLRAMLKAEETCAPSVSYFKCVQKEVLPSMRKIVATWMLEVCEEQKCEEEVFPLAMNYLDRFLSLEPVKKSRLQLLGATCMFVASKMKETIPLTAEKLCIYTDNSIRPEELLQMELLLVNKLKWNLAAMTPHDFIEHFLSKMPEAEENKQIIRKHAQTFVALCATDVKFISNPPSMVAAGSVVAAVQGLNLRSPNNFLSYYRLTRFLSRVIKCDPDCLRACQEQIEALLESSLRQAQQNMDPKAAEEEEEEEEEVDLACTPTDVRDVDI
smiles,measurement,setting,value
"Cc1nc2c(F)cc(-c3nc(Nc4ccc(CN5CCN(C(C)C)CC5)cn4)ncc3F)cc2n1C(C)C [Example 19, [5-Fluoro-4-(7-fluoro-3-isopropyl-2-methyl-3H-benzoimidazol-5-yl)-pyrimidin-2-yl]-[5-(4-isopropyl-piperazin-1-ylmethyl)-pyridin-2-yl]-amine methanesulfonate]",pIC50,CDK6,8.30
Cn1nnc2c(C(N)=O)ncn2c1=O [Temozolomide],Dead/total animals,[1],0/8
same,Maximum body weight loss (%),[1],−1%
same,Tumor volume (mg) at end of dosing period (day 31),[1],101.88 mg
same,Mean Survival,[2],46.9 days
same,Median Survival,[2],47 days
"CCN1CCN(Cc2ccc(Nc3ncc(F)c(-c4cc(F)c5nc(C)n(C(C)C)c5c4)n3)nc2)CC1.CS(=O)(=O)O [Example 16, [5-(4-Ethyl-piperazin-1-ylmethyl)-pyridin-2-yl]-[5-fluoro-4-(7-fluoro-3-isopropyl-2-methyl-3H-benzoimidazol-5-yl)-pyrimidin-2-yl]-amine methanesulfonate]",solubility,Solubility Assay,2.1 mg/mL
same,TGD Days (750 m3),"[3]; colo-205, 25 mpk",15.3 days
same,TGD Days (750 m3),"[3]; colo-205, 50 mpk",17.4 days
same,TGD Days (750 m3),"[3]; colo-205, 100 mpk",39.9 days
same,tumour response,"[4]; AML MV4-11 xenografts, 100 mg per Kg (mpk)",tumour regression is observed
same,TGD Days (750 m3),"[4]; MV4-11, 25 mpk",10.4 days
same,TGD Days (750 m3),"[4]; MV4-11, 50 mpk",11.5 days
same,Tumor volume (mg) at start of dosing period (day 28),"[4]; MV4-11, 100 mpk, PO, qdx21, day 28",225.94 mg
same,Tumor volume (mg) at end of dosing period (day 49),"[4]; MV4-11, 100 mpk, PO, qdx21, day 49",116.68 mg
same,TGD Days (750 m3),"[4]; MV4-11, 100 mpk",28.8 days
same,TGD Days (750 m3),[5]; 25 mpk,6.1 days
same,TGD Days (750 m3),[5]; 50 mpk,10.0 days
same,TGD Days (750 m3),[5]; 100 mpk,21.4 days
same,TGD Days (750 m3),"[6]; H460, 25 mpk",1.5 days
same,TGD Days (750 m3),"[6]; H460, 50 mpk",4.0 days
same,TGD Days (750 m3),"[6]; H460, 100 mpk",6.7 days
same,median survival compared to vehicle treated animals,"[7]; 40 mpk qd, 80 mpk qd and 80 mpk q2d",statistically significant increase in median survival
same,Mean Survival,[7]; PO 20 mg/kg qd,29.8 days
same,Median Survival,[7]; PO 20 mg/kg qd,31 days
same,Mean Survival,[7]; PO 40 mg/kg qd,34.3 days
same,Median Survival,[7]; PO 40 mg/kg qd,37 days
same,Mean Survival,[7]; PO 80 mg/kg q2d,33.0 days
same,Median Survival,[7]; PO 80 mg/kg q2d,34 days
same,Mean Survival,[7]; PO 80 mg/kg qd,36.9 days
same,Median Survival,[7]; PO 80 mg/kg qd,37 days
same,concentration at 2 h,[8]; [10],758 ng/g
same,concentration at 4 h,[8]; [10],1500 ng/g
same,concentration at 24 h,[8]; [10],992 ng/g
same,concentration at 48 h,[8]; [10],718 ng/g
same,Cmax,"[8]; Sprague Dawley, rat, plasma, 30 mg/kg oral",1.5 µg/mL
same,concentration at 2 h,[8]; [11],1.01 µg/mL
same,concentration at 4 h,[8]; [11],1.5 µg/mL
same,concentration at 24 h,[8]; [11],1.02 µg/mL
same,concentration at 48 h,[8]; [11],0.972 µg/mL
same,Tmax,"[8]; Sprague Dawley, rat, 30 mg/kg oral, plasma and brain, read-out: Maximal concentrations (Tmax)",4 h
same,Cmax Brain,[8]; 30 mg/kg oral,1500 ng/g
same,Tmax Brain,[8]; 30 mg/kg oral,4.00 h
same,Tmax Plasma,[8]; 30 mg/kg oral,4.00 h
same,blood-brain barrier penetration,[8]; 30 mg/kg oral,able to cross the blood-brain barrier and distributes well into the brain
same,AUC Brain,"[8]; 30 mg/kg oral, 0-48 Hours",47900 ng·h/g
same,AUC Plasma,"[8]; 30 mg/kg oral, 0-48 Hours",52.3 µg·h/mL
same,Kp,"[8]; male, Sprague Dawley, rat, brain/plasma, po, 30 mg/kg, 30 mg/kg oral, 0-48 Hours, read-out: AUC Brain/Plasma Ratio",0.92
same,Kp,"[8]; male, Sprague Dawley, rat, brain/plasma, po, 30 mg/kg, 30 mg/kg oral, by AUC or Cmax, read-out: brain/plasma ratio",~1
same,Kp at 4 h,"[8]; male, Sprague Dawley, rat, brain/plasma, po, 30 mg/kg, 30 mg/kg oral, read-out: Cmax Brain/Plasma Ratio",1
"Cl.Nc1ccn([C@@H]2O[C@H](CO)[C@@H](O)C2(F)F)c(=O)n1 (single isomer, unassigned) [Gemcitabine, 2′-deoxy-2′,2′-difluorocytidine monohydrochloride (β-isomer)]",Dead/total animals,[9],0/7
same,Maximum body weight loss (%),[9],−12%
same,Tumor volume (mg) at end of dosing period (day 38),[9],509.18 mg
